Legend:
skin of human subjects = assay: Human repeat insult patch test for skin irritation and sensitization; type: in vivo; conditions: positive control
Protocol: To determine the irritation and sensitization (contact allergy) potential of a test material after repeated application to the skin of human subjects three studies were conducted using the formulations of the invention comprising 2-undecanone, soybean oil, polysorbate 20, sorbitan oleate, oil of lemon eucalyptus and denatured alcohol (e.g., test materials).
Test materials to be tested under occlusive conditions were placed on an 8-millimeter aluminum Finn Chamber® (Epitest Ltd. Oy, Tuusula, Finland) supported on Scanpor® Tape (Norgesplaster A/S, Kristiansand, Norway) or an 8 mm filter paper coated aluminum Finn Chamber® AQUA supported on a thin flexible transparent polyurethane rectangular film coated on one side with a medical grade acrylic adhesive, consistent with adhesive used in state-of the-art hypoallergenic surgical tapes or a 7 mm IQ-ULTRA® closed cell system which is made of additive-free polyethylene plastic foam with a filter paper incorporated (It is supplied in units of 10 chambers on a hypoallergenic nonwoven adhesive tape; the width of the tape is 52 mm and the length is 118 mm) or other equivalents. Materials to be tested under semi-occlusive conditions were placed on a test strip with a Rayon/Polypropylene pad or on a 7.5 mm filter paper disc affixed to a strip of hypoallergenic tape (Johnson & Johnson 1 inch First Aid Cloth Tape).
Test materials to be tested in an open patch were applied and rubbed directly onto the back of the subject. Approximately 0.02-0.05 mL (in case of liquids) and/or 0.02-0.05 gm (in case of solids) of the test material was used for the studies. Liquid test material was dispensed on a 7.5 mm paper disk, which fit in the Finn Chamber.
Subjects were requested to bathe or wash as usual before arrival at the facility. Patches containing the test material were then affixed directly to the skin of the intrascapular regions of the back, to the right or left of the midline and subjects were dismissed with instructions not to wet or expose the test area to direct sunlight. Patches remained in place for 48 hours after the first application. Subjects were instructed not to remove the patches prior to their 48 hour scheduled visit. Thereafter, subjects were instructed to remove patches 24 hours after application for the remainder of the study.
This procedure was repeated until a series of nine (9) consecutive, 24-hour exposures had been made three (3) times a week for three (3) consecutive weeks. Prior to each reapplication, the test sites were evaluated by trained laboratory personnel. Following a 10-14 day rest period a retest/challenge dose was applied once to a previously unexposed test site.
Test sites were evaluated by trained laboratory personnel 48 and 96 hours after application.
In the event of an adverse reaction, the area of erythema and edema were measured. Edema was estimated by the evaluation of the skin with respect to the contour of the unaffected normal skin. Subjects were instructed to report any delayed reactions that might occur after the final reading.
Scoring scale and definition of symbols shown below are based on the scoring scheme according to the International Contact Dermatitis Research Group scoring scale [Rietschel, R. L., Fowler, J. F., Ed., Fisher's Contact Dermatitis (fourth ed.). […]

insect or tick = assay: Duration of repellency of 2-undecanone alone (statement, no method); conditions: unformulated

SMILES: CCCCCCCCCCCCOS(=O)(=O)[O-].[Na+] [2.0% Sodium Lauryl Sulfate Solution, Sodium Lauryl Sulfate]
- subjects with a Grade 1 delayed reaction (skin of human subjects; Study I): 4 subjects
- subjects with a Grade 1 reaction (skin of human subjects; Study I): 35 subjects
- subjects with a Grade 1 reaction (skin of human subjects; Study II): 10 subjects
- subjects with Grade 1 reaction (skin of human subjects; Study III): Two
- subjects with Grade 2 reaction (skin of human subjects; Study III): two

SMILES: CCCCCCCCCC(C)=O [Soybean 2-undecanone, 2-undecanone]
- duration of repellency (insect or tick): less than 30 min
